Legend:
[1] = system: Asexual parasites of P. falciparum strain 3D7; assay: In vitro drug activity on asexual parasites (SYBR Green assay); type: cell-based, Plasmodium falciparum
Procedure: Cell culture. Asexual parasites of P. falciparum strain 3D7 were cultured as described previously [Trager W, et al., Journal of Parasitology 2005, 91: 484-486], Stage III-V gametocytes were selected and enriched with 3-day treatment with 50 mM N-acetylglucosamine (NAG) and the following Percoll density gradient centrifugation after gametocyte production [Tanaka T Q, et al., Molecular and Biochemical Parasitology, 2011, 111: 160-163], Gametocytes of HB3 and Dd2 strains were produced and then set up for assay in a similar process. HepG2 cells (ATCC, cat. no. 77400) were cultured in 175-cm^2 tissue culture flasks with 30 ml growth medium at 37° C. in a 5% CO2 humidified atmosphere. Growth medium was made with Dulbecco's Modified Eagle Medium with 10% fetal bovine serum (FBS). Growth medium was replaced every other day and cells were passed at 75% confluence.
Asexual parasites of P. falciparum strain 3D7 were cultured as described previously (Trager, W. et al., J. Parasitol. 2005, 91(3): 484-486). Drug activity on asexual stage parasites was tested using a SYBR Green assay as described previously (Eastman, R. T. et al., Antimicrob. Agents Chemother. 2013, 57(1): 425-435; Smilkstein, M. et al., Antimicrob. Agents Chemother. 2004, 48(5): 1803-1806). Briefly, parasites were diluted to 0.5% parasitemia in complete culture medium with 2% hematocrit and drugs diluted in DMSO (≤0.5%) and were loaded into a 96-well plate (200 μl/well). No drug and RBC alone wells were included as positive and background controls, respectively, and each testing condition was examined in duplicated. After 72 h incubation under the standard culture condition and a freeze-thaw lysis step at −80° C. and room temperature, 100 μl/well of lysis buffer containing SYBR Green I was added to the parasite culture and incubated for 30 min at room temperature. The fluorescence of each well was measured at 520 nm following excitation at 490 nm using a FLUOstar Optima™ microplate reader (BMG Labtech).

mTOR = mTOR (Homo sapiens, UniProt P42345); assay: mTOR activity (no method described); type: biochemical
[2] = Microsomal stability (rat); type: in vitro ADME; settings: rat microsomes
Solubility at pH 7.4 = type: physicochemical
PAMPA permeability = type: in vitro ADME

SMILES	EC50 [1]	mTOR (mTOR)	Microsomal Stability (rat) T1/2 [2]	Sol @ pH 7.4 (Solubility at pH 7.4)	PAMPA Permeability (PAMPA permeability)
Cn1c(=O)n(-c2ccc(C(=O)O)cc2)c2c3cc(-c4ccc(Cl)cc4)ccc3ncc21 [Compound 435]	3660 nM	0.3646 µM	>30 min	30.8 ug/mL	11 ×10⁻⁶ cm/s
CN(C)CC#Cc1ccc2ncc3ccc(=O)n(-c4ccc(C(=O)N5CCOCC5)cc4)c3c2c1 [Compound 218]	1680 nM	16.25 µM	>30 min	>69 ug/mL	100 ×10⁻⁶ cm/s
CN(CCNC(=O)c1ccc(-n2c(=O)ccc3cnc4ccc(-c5ccc(Cl)cc5)cc4c32)cc1)c1ccccc1 [Compound 298]	950 nM	50 µM	1.5 min	0 ug/mL	148 ×10⁻⁶ cm/s
Cc1nc2ccc(-c3ccc(Cl)cc3)cc2c2c1ccc(=O)n2-c1ccc(C(=O)N2CCOCC2)cc1 [Compound 234]	2220 nM	18.92 µM	1.4 min	<1 ug/mL	874 ×10⁻⁶ cm/s
CNCc1ccc(-c2ccc3ncc4ccc(=O)n(-c5ccc(C(=O)N6CCOCC6)cc5)c4c3c2)cc1 [Compound 198]	264 nM	13.84 µM	>30 min	>75 ug/mL	6.1 ×10⁻⁶ cm/s
COc1cc(C(=O)NCCN(C)c2ccccc2)ccc1-n1c(=O)ccc2cnc3ccc(-c4ccc(Cl)cc4)cc3c21 [Compound 251]	2370 nM	100 µM	1.3 min	<1 ug/mL	< 1 ×10⁻⁶ cm/s
CCN(CC)CCNC(=O)c1ccc(-n2c(=O)ccc3cnc4ccc(-c5ccc(Cl)cc5)cc4c32)cc1 [Compound 284]	183 nM	9.354 µM	7.5 min	36.6 ug/mL	281 ×10⁻⁶ cm/s
Cc1cc(C(=O)NCCN2CCCCC2)ccc1-n1c(=O)ccc2cnc3ccc(-c4ccc(Cl)cc4)cc3c21 [Compound 291]	211 nM	4.975 µM	3.1 min	0 ug/mL	773 ×10⁻⁶ cm/s
COc1cc(C(=O)NCCN2CCC2)ccc1-n1c(=O)ccc2cnc3ccc(-c4ccc(Cl)cc4)cc3c21 [Compound 253]	258 nM	8.463 µM	>30 min	>80 ug/mL	353 ×10⁻⁶ cm/s
COc1cc(C(=O)NC2CCN(CCN(C)C)CC2)ccc1-n1c(=O)ccc2cnc3ccc(-c4ccc(Cl)cc4)cc3c21 [Compound 250]	549 nM	2.911 µM	>30 min	9.5 ug/mL	14.3 ×10⁻⁶ cm/s
CCN(CC)CCNC(=O)c1ccc(-n2c(=O)ccc3cnc4ccc(-c5ccc(Cl)cc5)cc4c32)c(C)c1 [Compound 276]	222 nM	21.76 µM	5.8 min	34.8 ug/mL	973 ×10⁻⁶ cm/s
O=C(NCC1CCOCC1)c1ccc(-n2c(=O)ccc3cnc4ccc(-c5ccc(Cl)cc5)cc4c32)cc1 [Compound 288]	284 nM	1.258 µM	1.2 min	<1 ug/mL	18.8 ×10⁻⁶ cm/s
CN(C)CCc1cccc(-c2ccc3ncc4ccc(=O)n(-c5ccc(C(=O)N6CCOCC6)cc5)c4c3c2)c1 [Compound 212]	3890 nM	15.8 µM	>30 min	>79 ug/mL	189 ×10⁻⁶ cm/s
CC(C)(C)c1ccc(-c2ccc3ncc4ccc(=O)n(-c5ccc(C(=O)N6CCOCC6)cc5)c4c3c2)cc1 [Compound 196]		100 µM	18 min	<1 ug/mL	85.9 ×10⁻⁶ cm/s
Cc1cc(C(=O)NC2CC2)ccc1-n1c(=O)ccc2cnc3ccc(-c4ccc(C5(N)CC5)cc4)cc3c21 [Compound 224]	46000 nM	100 µM		>74 ug/mL	< 1 ×10⁻⁶ cm/s

Continued by falling EC50 [1], values first:

EC50 [1]	mTOR (mTOR)	Microsomal Stability (rat) T1/2 [2]	Sol @ pH 7.4 (Solubility at pH 7.4)	PAMPA Permeability (PAMPA permeability)	SMILES
177 nM	1.061 µM		2.2 ug/mL	456 ×10⁻⁶ cm/s	COc1cc(C(=O)NC2CC2)ccc1-n1c(=O)ccc2cnc3ccc(-c4ccc(C5(N)CC5)cc4)cc3c21 [Compound 205]
152 nM	1.609 µM	>30 min	73.6 ug/mL	49.1 ×10⁻⁶ cm/s	Cc1cc(C(=O)NC2CCN(CCN(C)C)CC2)ccc1-n1c(=O)ccc2cnc3ccc(-c4ccc(Cl)cc4)cc3c21 [Compound 280]
145 nM	0.1688 µM	>30 min	58.1 ug/mL	< 1 ×10⁻⁶ cm/s	CC(N)c1ccc(-c2ccc3ncc4ccc(=O)n(-c5ccc(C(=O)N6CCOCC6)cc5)c4c3c2)cc1 (stereo not drawn) [Compound 207]
144 nM	15.14 µM	>30 min	46.4 ug/mL	208 ×10⁻⁶ cm/s	CN(C)CC#Cc1ccc2ncc3c(c2c1)n(-c1cccc(C#N)c1)c(=O)n3C [Compound 396]
101 nM	1.4 µM	>30 min	7.1 ug/mL	35.8 ×10⁻⁶ cm/s	NC1(c2ccc(-c3ccc4ncc5ccc(=O)n(-c6ccc(C(=O)NC7CC7)cc6)c5c4c3)cc2)CC1 [Compound 97]
81.8 nM	1.903 µM	16.7 min	<1 ug/mL	846 ×10⁻⁶ cm/s	Cc1cc(C(=O)NC2CC2)ccc1-n1c(=O)ccc2cnc3ccc(-c4ccc(Cl)cc4)nc3c21 [Compound 247]
69.1 nM	15.09 µM	2.7 min	70.7 ug/mL	1180 ×10⁻⁶ cm/s	Cc1cc(C(=O)NCCCN2CCC(C)CC2)ccc1-n1c(=O)ccc2cnc3ccc(-c4ccc(Cl)cc4)cc3c21 [Compound 283]
65.9 nM	21.75 µM	13.2 min	35.5 ug/mL	248 ×10⁻⁶ cm/s	CN(C)C(=O)c1ccc(-n2c(=O)ccc3c[n+]([O-])c4ccc(-c5ccc(Cl)cc5)cc4c32)cc1 [Compound 208]
53.7 nM	11.77 µM	2.4 min	35.6 ug/mL	863 ×10⁻⁶ cm/s	CC1CCN(CCCNC(=O)c2ccc(-n3c(=O)ccc4cnc5ccc(-c6ccc(Cl)cc6)cc5c43)cc2)CC1 [Compound 286]
53.4 nM	1.065 µM	>30 min	9.2 ug/mL	7.6 ×10⁻⁶ cm/s	O=C(NC1CNC1)c1ccc(-n2c(=O)ccc3cnc4ccc(-c5ccc(Cl)cc5)cc4c32)cc1 [Compound 232]
52.1 nM	5.227 µM	21.9 min	11.8 ug/mL	626 ×10⁻⁶ cm/s	COc1cc(C(=O)NC2CC2)ccc1-n1c(=O)ccc2cnc3ccc(-c4ccc(F)c(O)c4)cc3c21 [Compound 272]
50.5 nM	1.317 µM	15.8 min	>84 ug/mL	49.1 ×10⁻⁶ cm/s	Cc1cc(C(=O)NC2CCN(CCO)CC2)ccc1-n1c(=O)ccc2cnc3ccc(-c4ccc(Cl)cc4)cc3c21 [Compound 279]
33 nM	4.415 µM	>30 min	<1 ug/mL	54.2 ×10⁻⁶ cm/s	O=C(NC1CC1)c1ccc(-n2c(=O)ccc3cnc4ccc(-c5ccc(F)cc5)cc4c32)cc1 [Compound 91]
19.8 nM	0.9169 µM	23.3 min	<1 ug/mL	735 ×10⁻⁶ cm/s	Cc1cc(C(=O)NC2CC2)ccc1-n1c(=O)ccc2cnc3ccc(-c4ccc(Cl)c(O)c4)cc3c21 [Compound 225]
15.7 nM	1.731 µM	>30 min	54.7 ug/mL	674 ×10⁻⁶ cm/s	CN(C)CCN1CCN(C(=O)c2ccc(-n3c(=O)ccc4cnc5ccc(-c6ccc(Cl)cc6)cc5c43)cc2)CC1 [Compound 95]
